In US7189680B2, “5-halo-6-aryl[1,2,4]triazolo[1,5-a]pyrimidin-7-amines” (Bayer Cropscience AG, priority 2001, dated 2007):

Experiments:
[1] = tested on: Fusarium nivale (var. majus); test: Fusarium nivale (var. majus) test (wheat)/protective; type: in vivo; conditions: protective, 500 g/ha, evaluation 4 days following inoculation
Description: (§1) To produce a suitable preparation of active compound, one part by weight of active compound is mixed with the stated amounts of solvent and emulsifier, and the concentrate is diluted with water to the desired concentration.
To test for protective activity, young plants are sprayed with the active compound preparation at the application rate indicated. After the spray coating has dried on, the plants are sprayed with a conidia suspension of Fusarium nivale (var. majus).
The plants are placed in a greenhouse under transparent incubation hoods at a temperature of about 15° C. and a relative humidity of about 100%.
Evaluation is made 4 days following inoculation. 0% denotes an efficacy corresponding to that of the control, whereas an efficacy of 100% means that no infestation is observed.

Venturia inaequalis = test: Venturia test (apple)/protective; type: in vivo; conditions: protective, 100 g/ha, evaluation 10 days following inoculation
Description: as §1
To test for protective activity, young plants are sprayed with the active compound preparation at the application rate indicated. After the spray coating has dried on, the plants are inoculated with an aqueous conidia suspension of the apple scab causative organism, Venturia inaequalis, and then remain in an incubation cabin for 1 day at about 20° C. and 100% relative humidity.
The plants are placed in a greenhouse at a temperature of about 15° C. and a relative humidity of about 90%.
Evaluation is made 10 days following inoculation. 0% denotes an efficacy corresponding to that of the control, whereas an efficacy of 100% means that no infestation is observed.

Row | SMILES | Efficacy in % [1] [%] | also measured
1 | CN(C)Nc1c(-c2c(F)cc(F)cc2F)c(Cl)nc2ncnn12 [Example 1, 5-chloro-7-(2,2-dimethylhydrazino)-6-(2,4,6-trifluorophenyl)[1,2,4]-triazolo[1,5-a]pyrimidine] |  | melting point: 165 to 168 °C
2 | CCCN(N)c1c(-c2c(F)cc(F)cc2F)c(Cl)nc2ncnn12 [drawing 43] | 80 | 
3 | CCN(N)c1c(-c2c(F)cc(F)cc2F)c(Cl)nc2ncnn12 [drawing 44] | 80 | 
4 | CNN(C)c1c(-c2c(F)cc(F)cc2F)c(Cl)nc2ncnn12 [drawing 45] | 93 | 
5 | CN(C)Nc1c(-c2c(F)cc(F)cc2F)c(Cl)nc2ncnn12 [drawing 46] |  | Efficacy in % (Venturia inaequalis): 94%
